Read-outs that look alike come from different tables or passages of the source.

The target of data set [1] is CYP2C9 (Homo sapiens, UniProt P11712). Nature of the data set: in vitro. The note with it: probe Diclofenac.
The target in data set [2] is dogTRPA1 (Canis lupus familiaris, UniProt A0A8I3Q1Q7). Nature of the data set: TRPA1 IC50, whole-cell patch clamp. As to conditions: dogTRPA1, 10 μM AITC; read-out: IC50 Inward current. In kind it is cell-based, Dog. The source says: The change in IC50 block in the presence of albumin and plasma was also studied. It is assumed that the pharmacological effect of a drug correlates to unbound plasma levels, which is known as the “free drug hypothesis”. The aim of this study was to estimate the change in IC50 for block of human TRPA1 (hTRPA1) by Compound 2 in the presence of physiologically relevant concentrations of albumin and plasma (see Table 7). The human form of TRPA1 was used to assess protein binding in all species due to technical issues. The whole-cell patch clamp technique as described in del Camino, D. et al. J Neurosci 74 (2010) 30:15165 was employed to measure current through hTRPA1 upon activation by allyl isothiocyanate (AITC), the active ingredient in mustard oil, in the presence of 1% (w/v) serum albumin or 25% (v/v) plasma from various species including human plasma (hPlasma), human serum albumin (HSA), rat plasma (rPlasma), rat serum albumin (RSA), dog plasma, and sheep serum albumin (sheepSA). […]
Data for TRPA1 inhibition was obtained by this method for the indicated compounds of Formula (I), with the relevant data included in Table 14 below. All currents were recorded in whole-cell configuration using EPC-9 and EPC-10 amplifiers and Patchmaster software (HEKA). […]
(Patch clamp records ionic current or voltage across a cell membrane.)

Data set [3] can be described thus: Oral PK and bioavailability of micronized Compound 2 suspension. In kind it is in vivo, dogs (beagles). As to conditions: fasted dogs. As for the experimental part:
(§1) Additional studies were conducted with micronized Compound 2 in rat, dogs (beagles), and cynomolgus monkeys. Animals received a 10 mg/kg dose oral dose of compound formulated as a suspension in 0.5% methyl cellulose in water for injection at a target concentration of 1 mg/mL, and administered a dose volume of 10 mL/kg by oral gavage in rats or fasted dogs and via oral delivery in fasted cynomolgus monkeys. The % F for the rats in these studies was 85%, 36% for the dogs, and 19% for the monkeys. FIG. 11 depicts the pharmacokinetic profile for these species.
Three studies were conducted in dogs (beagles). In one study, three fasted dogs were administered 10 mg/kg of a suspension of micronized Compound 2 by gavage. Blood samples were collected from these dogs before dosing and at 0.25, 0.50, 1, 2, 4, 6, 8, 12, and 24 hours post-administration. Blood samples were analyzed to determine plasma levels of Compound 2 by LC/MS/MS. In subsequent studies, pharmacokinetic (PK) parameters were determined following a single oral dose of suspensions of micronized Compound 2 (recrystallized from ethanol) administered to fasted dogs at dose levels of 10, 100, 300, 600, or 1000 mg/kg. Blood samples were taken before dosing and at 0.5, 1, 2, 4, 8, 12, 24 and 48 hours post-dosing and analyzed to determine plasma levels of Compound 2.

Data set [4] in a line: Plasma protein binding, equilibrium dialysis. In kind it is in vitro ADME. As to conditions: pooled K2EDTA plasma, read-out: Mean % Bound ± SD (converted). How it is done: With this method, free compound is separated from protein-bound compound by dialysis across a semi-permeable membrane.
The protein binding was tested at a concentration of 1 μM. Pooled human, cynomolgus monkey, dog, and rat K2EDTA plasma was thawed and centrifuged at 2000×g for 10 minutes at 4° C. to remove particulates; any lipid on the top of the supernatant was also removed by aspiration. The plasma was warmed to 37° C. for 10 minutes before use. Test compounds were spiked into 2 ml plasma in a polypropylene plate to a final concentration of 1 μM. Triplicate 400 μl aliquots of spiked plasma were transferred into the Thermo RED dialysis units and dialyzed against 600 μl of PBS buffer. […] After 6 hours dialysis, triplicate 50 μl aliquots were removed from the RED plate, matrix-matched with either PBS buffer or blank plasma, as appropriate, and quenched with 4 volumes of ACN containing an internal standard. The extracted samples were then centrifuged at 2000×g for 5 minutes at 4° C. The supernatant (50 μl) was removed and diluted with 100 μl water prior to LC/MS/MS bioanalysis.
(Equilibrium dialysis compares concentrations on both sides of a semipermeable membrane.)

In data set [5] the target is T1, rTRPA1 (Rattus norvegicus, UniProt Q6RI86).
T1 construct: expressed in transfected cells
Put plainly: TRPA1 IC50, whole-cell patch clamp. In kind it is cell-based. The note with it: rTRPA1, 10 μM AITC; read-out: IC50 Inward current.

Data set [6] relates to human CYP450 enzymes. Put plainly: CYP450 inhibition, seven isozymes overall. In kind it is biochemical. As to conditions: 10 μM, seven isozymes tested.
The test system of data set [7] is T2, human CYP450 enzymes (seven isozymes tested).
T2 construct: other: seven isozymes tested
Put plainly: CYP450 inhibition, seven isozymes overall. It counts as biochemical. The note with it: human, read-out: calculated IC50 values.

Data set [8] concerns the target CYP3A4 (Homo sapiens, UniProt P08684). Nature of the data set: CYP450 inhibition at 10 μM. It counts as biochemical.
A short description of data set [9]: Oral PK and bioavailability of micronized Compound 2 suspension. In kind it is in vivo, Sprague-Dawley rats. How it is done: as §1
Several in vivo studies were performed to characterize the bioavailability of Compound 2. In Sprague-Dawley rats, a single oral dose of 10 mg/kg to 1000 mg/kg of Compound 2 were compared in a series of experiments. Compound 2 used in these studies was recrystallized from ethanol and micronized.

Data set [10] deals with CYP2B6 (Homo sapiens, UniProt P20813). Put plainly: in vitro. The note with it: probe Buproprion.
CYP2B6, sequence (P20813 whole entry): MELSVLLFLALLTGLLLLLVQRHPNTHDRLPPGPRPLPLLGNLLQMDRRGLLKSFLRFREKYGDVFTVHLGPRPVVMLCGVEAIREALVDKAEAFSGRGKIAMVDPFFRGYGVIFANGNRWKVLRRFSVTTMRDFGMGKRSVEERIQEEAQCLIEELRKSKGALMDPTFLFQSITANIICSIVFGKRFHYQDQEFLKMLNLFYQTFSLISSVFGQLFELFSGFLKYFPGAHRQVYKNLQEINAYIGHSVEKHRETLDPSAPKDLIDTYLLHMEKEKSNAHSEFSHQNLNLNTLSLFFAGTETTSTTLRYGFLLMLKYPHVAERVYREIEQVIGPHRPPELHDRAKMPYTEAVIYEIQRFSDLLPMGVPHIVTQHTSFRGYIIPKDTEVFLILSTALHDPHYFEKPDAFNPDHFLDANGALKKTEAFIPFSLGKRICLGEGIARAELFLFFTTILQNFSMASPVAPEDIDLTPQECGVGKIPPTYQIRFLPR

CYP3A4, sequence (P08684 whole entry): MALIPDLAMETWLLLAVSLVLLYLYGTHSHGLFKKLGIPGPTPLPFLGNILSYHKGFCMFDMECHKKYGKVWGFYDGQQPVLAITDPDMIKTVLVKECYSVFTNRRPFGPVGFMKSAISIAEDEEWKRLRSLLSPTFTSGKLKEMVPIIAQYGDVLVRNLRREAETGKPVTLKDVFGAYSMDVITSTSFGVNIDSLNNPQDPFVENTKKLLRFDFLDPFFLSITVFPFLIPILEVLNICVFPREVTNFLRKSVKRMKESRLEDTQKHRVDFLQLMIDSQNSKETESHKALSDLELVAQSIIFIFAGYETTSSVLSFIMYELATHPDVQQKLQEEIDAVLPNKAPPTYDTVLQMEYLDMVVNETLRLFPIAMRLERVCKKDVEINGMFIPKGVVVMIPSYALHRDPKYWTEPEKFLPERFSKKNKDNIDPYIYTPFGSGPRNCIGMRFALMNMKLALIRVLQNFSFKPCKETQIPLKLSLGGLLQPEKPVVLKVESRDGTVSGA
CYP2C9, sequence (P11712 whole entry): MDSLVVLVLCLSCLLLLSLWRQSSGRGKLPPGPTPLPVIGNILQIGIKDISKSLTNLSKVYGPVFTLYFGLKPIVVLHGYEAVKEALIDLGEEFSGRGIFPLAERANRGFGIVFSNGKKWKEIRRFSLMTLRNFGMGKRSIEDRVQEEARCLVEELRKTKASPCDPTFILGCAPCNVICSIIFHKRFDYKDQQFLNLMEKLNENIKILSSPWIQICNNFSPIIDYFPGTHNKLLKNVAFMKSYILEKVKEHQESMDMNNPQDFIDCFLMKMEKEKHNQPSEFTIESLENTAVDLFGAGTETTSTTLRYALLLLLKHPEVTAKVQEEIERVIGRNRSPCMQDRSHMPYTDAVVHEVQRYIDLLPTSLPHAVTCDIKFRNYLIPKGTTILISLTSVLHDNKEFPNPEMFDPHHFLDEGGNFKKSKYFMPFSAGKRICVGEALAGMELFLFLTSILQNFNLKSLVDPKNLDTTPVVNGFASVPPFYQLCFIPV
dogTRPA1, sequence (A0A8I3Q1Q7 1-1118): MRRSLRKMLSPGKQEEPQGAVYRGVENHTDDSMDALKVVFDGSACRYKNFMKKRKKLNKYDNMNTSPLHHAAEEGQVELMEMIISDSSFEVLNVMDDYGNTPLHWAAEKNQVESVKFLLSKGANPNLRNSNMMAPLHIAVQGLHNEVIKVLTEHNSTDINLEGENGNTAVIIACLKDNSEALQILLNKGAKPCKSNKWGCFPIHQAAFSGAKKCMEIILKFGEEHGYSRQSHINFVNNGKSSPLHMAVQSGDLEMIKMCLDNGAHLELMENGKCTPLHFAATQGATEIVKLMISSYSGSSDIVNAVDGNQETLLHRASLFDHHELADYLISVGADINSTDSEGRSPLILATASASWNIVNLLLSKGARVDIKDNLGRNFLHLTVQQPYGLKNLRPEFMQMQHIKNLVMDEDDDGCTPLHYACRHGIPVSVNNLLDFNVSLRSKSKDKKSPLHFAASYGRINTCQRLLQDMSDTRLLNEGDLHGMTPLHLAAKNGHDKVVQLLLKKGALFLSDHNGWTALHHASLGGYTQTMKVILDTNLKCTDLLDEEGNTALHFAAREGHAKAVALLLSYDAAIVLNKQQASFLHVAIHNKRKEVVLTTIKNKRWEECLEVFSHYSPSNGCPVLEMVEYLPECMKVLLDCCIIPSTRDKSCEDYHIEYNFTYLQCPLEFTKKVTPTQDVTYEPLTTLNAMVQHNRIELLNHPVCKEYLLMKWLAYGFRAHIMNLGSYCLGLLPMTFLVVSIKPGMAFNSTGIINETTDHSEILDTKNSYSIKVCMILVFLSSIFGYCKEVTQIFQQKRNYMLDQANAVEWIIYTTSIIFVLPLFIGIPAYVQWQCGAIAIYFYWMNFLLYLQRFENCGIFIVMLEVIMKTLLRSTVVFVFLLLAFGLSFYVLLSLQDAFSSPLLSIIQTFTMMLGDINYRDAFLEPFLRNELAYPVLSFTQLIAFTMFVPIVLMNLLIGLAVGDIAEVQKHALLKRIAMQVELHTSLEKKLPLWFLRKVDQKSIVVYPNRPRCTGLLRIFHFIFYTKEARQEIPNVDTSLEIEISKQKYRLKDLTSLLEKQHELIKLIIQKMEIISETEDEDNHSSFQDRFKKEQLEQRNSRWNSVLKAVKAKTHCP
T1 sequence (Q6RI86 whole entry): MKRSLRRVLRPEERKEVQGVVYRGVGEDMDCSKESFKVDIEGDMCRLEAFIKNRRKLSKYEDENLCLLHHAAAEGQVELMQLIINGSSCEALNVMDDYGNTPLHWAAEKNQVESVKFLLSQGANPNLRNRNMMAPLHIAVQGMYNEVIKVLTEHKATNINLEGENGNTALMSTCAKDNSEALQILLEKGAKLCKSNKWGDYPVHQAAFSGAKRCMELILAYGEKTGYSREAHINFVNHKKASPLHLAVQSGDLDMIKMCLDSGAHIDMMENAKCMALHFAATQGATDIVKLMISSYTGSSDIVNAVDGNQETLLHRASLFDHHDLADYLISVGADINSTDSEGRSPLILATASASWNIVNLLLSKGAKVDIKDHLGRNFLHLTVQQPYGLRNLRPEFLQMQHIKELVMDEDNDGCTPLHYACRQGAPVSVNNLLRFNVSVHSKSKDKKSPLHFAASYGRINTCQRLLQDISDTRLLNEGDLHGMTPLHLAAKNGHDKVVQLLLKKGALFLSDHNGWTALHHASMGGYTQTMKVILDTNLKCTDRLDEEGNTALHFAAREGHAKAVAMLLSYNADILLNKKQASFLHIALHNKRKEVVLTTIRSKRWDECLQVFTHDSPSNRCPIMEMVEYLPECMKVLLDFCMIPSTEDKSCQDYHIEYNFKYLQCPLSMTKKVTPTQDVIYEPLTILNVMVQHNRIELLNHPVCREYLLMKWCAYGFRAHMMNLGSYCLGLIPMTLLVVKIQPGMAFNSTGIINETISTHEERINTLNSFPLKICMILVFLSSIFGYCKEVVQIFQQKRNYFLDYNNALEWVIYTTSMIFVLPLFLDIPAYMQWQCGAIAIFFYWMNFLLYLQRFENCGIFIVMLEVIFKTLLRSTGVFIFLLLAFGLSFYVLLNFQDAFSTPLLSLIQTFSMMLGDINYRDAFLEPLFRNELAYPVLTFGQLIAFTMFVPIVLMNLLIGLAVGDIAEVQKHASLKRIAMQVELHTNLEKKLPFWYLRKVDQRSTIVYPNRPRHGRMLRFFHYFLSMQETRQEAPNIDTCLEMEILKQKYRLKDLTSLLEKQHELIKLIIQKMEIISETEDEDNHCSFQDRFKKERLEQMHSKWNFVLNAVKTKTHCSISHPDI

As usually defined, the inhibition is the change of the read-out against control, counted positive when it falls. Broadly, the IC50 is the concentration that gives 50% inhibition. For orientation: bioavailability means dose-corrected exposure relative to a reference, in per cent. For `C[C@@H](C(=O)Nc1ccnc(-c2cnc(N3CCC[C@H]3C(F)(F)F)nc2)n1)n1cnc2c1c(=O)n(C)c(=O)n2C` [Compound 2, (S)-2-(1,3-dimethyl-2,6-dioxo-2,3-dihydro-1H-purin-7(6H)-yl)-N-(2′-((S)-2-(trifluoromethyl)pyrrolidin-1-yl)-[2,5′-bipyrimidin]-4-yl)propanamide], the inhibition at 10 µM in data set [1] was 22%; in [8] (probe Midazolam, 3A4, substrate Midazolam), 0%; in data set [8] (probe Testosterone, 3A4, substrate Testosterone), 2.8%; in data set [10], 15.1%. The IC50 in [2] is 23.5 ± 6.4 nM; in data set [5], 22.9 ± 4.6 nM; in data set [7], over 10 µM. The bioavailability turned out to be 36% in [3] (beagle, dog, plasma, 10 mg/kg oral, micronized suspension) and 85% in data set [9] (Sprague-Dawley, rat, plasma, rats, 10 mg/kg oral, micronized suspension in 0.5% methyl cellulose). Further, in data set [3] (single oral dose 10 to 1000 mg/kg), the “Exposures on an AUC and Cmax basis versus dose” value is reported as “increased with doses up to 600 mg/kg”. For the same molecule, the fraction unbound at 6 h, 1 μM in data set [4] (Human plasma) is 0.015; in data set [4] (Sprague dawley rat plasma), 0.047. In addition, the “maximum block of human CYP450 enzymes” value in data set [6] is “up to 37%”. For the same molecule, the “Exposures based on AUC and Cmax versus dose” value in data set [9] (Sprague-Dawley rats, single oral dose 10 mg/kg to 1000 mg/kg) was “increased with doses up to 1000 mg/kg”.

The values are drawn from patent publication US20170050966A1, “INHIBITING THE TRANSIENT RECEPTOR POTENTIAL A1 ION CHANNEL” (HYDRA BIOSCIENCES, INC., priority 2014, published 2017).
